Earlier results, collected in patent US9642863B2, “Methods for treating chronic or unresolvable pain and/or increasing the pain threshold in a subject and pharmaceutical compositions for use therein” (White Mountain Pharma, Inc., priority 2010, dated 2017).

Assays:
women with fibromyalgia = settings: female fibromyalgia patients, transdermal testosterone
[1] = test system: chronic pain subjects on maintenance opioids; settings: four patients, testosterone adjunctive to primary opioid therapy, anecdotal
rats = settings: treatment with testosterone
[2] = genotypic females dosed with testosterone, 36 months
[3] = test system: female-to-male transsexuals; settings: doses of testosterone at or above the male reference range

C[C@]12CC[C@H]3[C@@H](CCC4=CC(=O)CC[C@@]43C)[C@@H]1CC[C@@H]2O [testosterone]
fibromyalgia muscle tender point pain (women with fibromyalgia): significantly improve | quality of life [1]: improved quality of life | pain responses to the formalin test (rats): decreased pain responses | stable serum total testosterone levels [2]: about 620+/−130 ng/dL | side effects [3]: develop hirsutism and male-like increased risk for cardiovascular disease and diabetes
